One data set is described as follows: Solubility in PBS. In kind it is physicochemical. Put shortly:
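Read-out is the HPLC peak area of the supernatant from ultracentrifuged PBS solution, scaled against a 50 μM peptide DMSO injection; value reported as [(PBS area)/(DMSO area)]*50 uM.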

Data set [1] concerns the target T1, full-length beta-Catenin (Uniprot ID P35222) (Homo sapiens, UniProt P35222).
T1 construct: 10 nM full-length beta-Catenin (Uniprot ID P35222)
T1 sequence (P35222 1-781): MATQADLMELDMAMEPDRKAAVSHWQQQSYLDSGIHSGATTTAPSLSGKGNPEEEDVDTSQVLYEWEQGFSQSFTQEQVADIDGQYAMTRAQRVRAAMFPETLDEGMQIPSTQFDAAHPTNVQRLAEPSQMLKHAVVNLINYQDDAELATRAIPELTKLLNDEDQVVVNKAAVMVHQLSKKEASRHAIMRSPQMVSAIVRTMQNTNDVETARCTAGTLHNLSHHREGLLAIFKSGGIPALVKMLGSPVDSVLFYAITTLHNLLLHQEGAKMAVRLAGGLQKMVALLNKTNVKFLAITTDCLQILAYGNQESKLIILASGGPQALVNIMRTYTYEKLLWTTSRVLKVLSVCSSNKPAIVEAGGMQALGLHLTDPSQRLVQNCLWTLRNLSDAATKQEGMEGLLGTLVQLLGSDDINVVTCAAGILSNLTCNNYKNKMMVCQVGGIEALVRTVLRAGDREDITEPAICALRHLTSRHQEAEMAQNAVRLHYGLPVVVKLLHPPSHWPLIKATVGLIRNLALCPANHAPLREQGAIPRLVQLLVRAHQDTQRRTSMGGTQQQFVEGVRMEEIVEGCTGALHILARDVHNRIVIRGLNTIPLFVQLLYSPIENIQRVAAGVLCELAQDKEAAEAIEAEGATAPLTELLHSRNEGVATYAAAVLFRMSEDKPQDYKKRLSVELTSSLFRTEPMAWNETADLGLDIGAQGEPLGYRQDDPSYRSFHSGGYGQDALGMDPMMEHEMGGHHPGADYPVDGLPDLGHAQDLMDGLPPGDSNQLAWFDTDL
In words: Fluorescence polarization IC50 (beta-catenin / 5FAM-TCF4 10-53 competition). In kind it is binding. The conditions noted are these: fluorescence polarization. On the technique in general: In fluorescence polarisation assays a small probe gives low polarisation when free and higher when bound to something large.

Converted amounts (≈) assume the structure as drawn. Where two headings read alike, the source gives them in different places.

In general, Solubility refers to the concentration that dissolves in the medium under given conditions. The low end stands for a poorly soluble substance, the high end for a readily soluble substance.

On to `CC(=O)N1CCC[C@]12CC=CCCCC1(CCCC=CCCCOC(=O)N3CC[C@@](C(=O)N[C@@H](Cc4ccc(C#N)cc4)C(=O)N[C@@H](Cc4csc5ccccc45)C(=O)N[C@@H](CCC(N)=O)C(N)=O)(C3)NC(=O)[C@H](CC(C)C)NC(=O)[C@H](Cc3ccccc3)NC(=O)[C@H](C)NC(=O)[C@H](C)NC(=O)[C@H](CC(=O)O)NC(=O)[C@H](CC(=O)O)NC1=O)NC(=O)[C@H](CC(C)(C)C)NC(=O)[C@H](CC(=O)O)NC2=O` (stereo partly drawn) [I-1205, Ac-PL3-Asp-Npg-B5-Asp-Asp-Ala-Ala-Phe-Leu-PyrS2-4CNF-BztA-Gln-NH2], for which, in the data set “Solubility in PBS”, the “Solubility” value is 50 µM (≈ 96.8 µg/mL). Moreover, in data set [1] (read-out: beta-Catenin FP IC50), the IC50 amounted to 987 nM.
`CC(=O)N1CCC[C@]12CC=CCCCC1(CCCC=CCCCOC(=O)N3CC[C@@](C(=O)N[C@@H](Cc4ccsc4)C(=O)N[C@@H](Cc4csc5ccccc45)C(=O)N[C@@H](CCC(N)=O)C(N)=O)(C3)NC(=O)[C@H](CC(N)=O)NC(=O)[C@H](Cc3ccccc3)NC(=O)[C@H](C)NC(=O)[C@H](C)NC(=O)[C@H](CC(=O)O)NC(=O)[C@H](CO)NC1=O)NC(=O)[C@H](CC(C)(C)C)NC(=O)[C@H](CC(=O)O)NC2=O` (stereo partly drawn) [I-1208, Ac-PL3-Asp-Npg-B5-Ser-Asp-Ala-Ala-Phe-Asn-PyrS2-3Thi-BztA-Gln-NH2] registered a Solubility in “Solubility in PBS” (Solubility (uM)) of 44 µM (≈ 83.2 µg/mL). Moreover, in data set [1] (read-out: beta-Catenin FP IC50), the IC50 was 349 nM.
On the same counts, the results for `CC(=O)N1CCC[C@]12CC=CCCCC1(CCCC=CCCCOC(=O)N3CC[C@@](C(=O)N[C@@H](Cc4ccsc4)C(=O)N[C@@H](Cc4csc5ccccc45)C(=O)N[C@@H](CCC(N)=O)C(N)=O)(C3)NC(=O)[C@H](CC(C)C)NC(=O)[C@H](Cc3ccccc3)NC(=O)[C@H](C)NC(=O)[C@H](C)NC(=O)[C@H](CC(=O)O)NC(=O)[C@H](CO)NC1=O)NC(=O)[C@H](CC(C)(C)C)NC(=O)[C@H](CC(=O)O)NC2=O` (stereo partly drawn) [I-1209, Ac-PL3-Asp-Npg-B5-Ser-Asp-Ala-Ala-Phe-Leu-PyrS2-3Thi-BztA-Gln-NH2] are 16 µM (≈ 30.2 µg/mL) and 479 nM.
Take `CC(=O)N1CCC[C@]12CC=CCCCC1(CCCC=CCCCOC(=O)N3CC[C@@](C(=O)N[C@@H](Cc4ccsc4)C(=O)N[C@@H](Cc4csc5ccccc45)C(=O)N[C@@H](CCC(N)=O)C(N)=O)(C3)NC(=O)[C@H](CC(N)=O)NC(=O)[C@H](Cc3ccccc3)NC(=O)[C@H](C)NC(=O)[C@H](C)NC(=O)[C@H](CC(=O)O)NC(=O)[C@H](CCC(N)=O)NC1=O)NC(=O)[C@H](CC(C)(C)C)NC(=O)[C@H](CC(=O)O)NC2=O` (stereo partly drawn) [I-1210, Ac-PL3-Asp-Npg-B5-Gln-Asp-Ala-Ala-Phe-Asn-PyrS2-3Thi-BztA-Gln-NH2]: the “Solubility” value in “Solubility in PBS” is 50 µM (≈ 96.6 µg/mL). Moreover, the IC50 in data set [1] (read-out: beta-Catenin FP IC50) is 56 nM.
`CC(=O)N1CCC[C@]12CC=CCCCC1(CCCC=CCCCOC(=O)N3CC[C@@](C(=O)N[C@@H](Cc4ccsc4)C(=O)N[C@@H](Cc4csc5ccccc45)C(=O)N[C@@H](CCC(N)=O)C(N)=O)(C3)NC(=O)[C@H](CC(C)C)NC(=O)[C@H](Cc3ccccc3)NC(=O)[C@H](C)NC(=O)[C@H](C)NC(=O)[C@H](CC(=O)O)NC(=O)[C@H](CCC(N)=O)NC1=O)NC(=O)[C@H](CC(C)(C)C)NC(=O)[C@H](CC(=O)O)NC2=O` (stereo partly drawn) [I-1211, Ac-PL3-Asp-Npg-B5-Gln-Asp-Ala-Ala-Phe-Leu-PyrS2-3Thi-BztA-Gln-NH2]: the Solubility in the data set “Solubility in PBS” (Solubility (uM)) came out at 11 µM (≈ 21.2 µg/mL). In addition, in data set [1] (read-out: beta-Catenin FP IC50), the IC50 stood at 115 nM.
As for `CC(=O)N1CCC[C@]12CC=CCCCC1(CCCC=CCCCOC(=O)N3CC[C@@](C(=O)N[C@@H](Cc4ccsc4)C(=O)N[C@@H](Cc4csc5ccccc45)C(=O)N[C@@H](CCC(N)=O)C(N)=O)(C3)NC(=O)[C@H](CC(N)=O)NC(=O)[C@H](Cc3ccccc3)NC(=O)[C@H](C)NC(=O)[C@H](C)NC(=O)[C@H](CC(=O)O)NC(=O)[C@H](CCO)NC1=O)NC(=O)[C@H](CC(C)(C)C)NC(=O)[C@H](CC(=O)O)NC2=O` (stereo partly drawn) [I-1214, Ac-PL3-Asp-Npg-B5-Hse-Asp-Ala-Ala-Phe-Asn-PyrS2-3Thi-BztA-Gln-NH2], the “Solubility” value in “Solubility in PBS” stood at 50 µM (≈ 95.2 µg/mL). In addition, the IC50 in data set [1] (read-out: beta-Catenin FP IC50) was determined as 116 nM.
Regarding `CC(=O)N1CCC[C@]12CC=CCCCC1(CCCC=CCCCOC(=O)N3CC[C@@](C(=O)N[C@@H](Cc4ccsc4)C(=O)N[C@@H](Cc4csc5ccccc45)C(=O)N[C@@H](CCC(N)=O)C(N)=O)(C3)NC(=O)[C@H](CC(C)C)NC(=O)[C@H](Cc3ccccc3)NC(=O)[C@H](C)NC(=O)[C@H](C)NC(=O)[C@H](CC(=O)O)NC(=O)[C@H](CCO)NC1=O)NC(=O)[C@H](CC(C)(C)C)NC(=O)[C@H](CC(=O)O)NC2=O` (stereo partly drawn) [I-1215, Ac-PL3-Asp-Npg-B5-Hse-Asp-Ala-Ala-Phe-Leu-PyrS2-3Thi-BztA-Gln-NH2], the “Solubility” value in the data set “Solubility in PBS” turned out to be 10 µM (≈ 19 µg/mL). In addition, the IC50 in data set [1] (read-out: beta-Catenin FP IC50) is 216 nM.
Turning to `CCCCCCCC(=O)N1CCC[C@]12CC=CCCCC1(CCCC=CCCCOC(=O)N3CC[C@@](C(=O)N[C@@H](Cc4ccccc4Cl)C(=O)N[C@@H](Cc4csc5ccccc45)C(=O)N[C@@H](C(N)=O)[C@H](C)O)(C3)NC(=O)[C@H](CC(N)=O)NC(=O)[C@H](Cc3ccccc3)NC(=O)[C@H](C)NC(=O)[C@H](C)NC(=O)[C@H](CC(=O)O)NC(=O)[C@H](CC(=O)O)NC1=O)NC(=O)[C@H](CC(C)(C)C)NC(=O)[C@H](CC(=O)O)NC2=O` (stereo partly drawn) [I-1252, Oct-PL3-Asp-Npg-B5-Asp-Asp-Ala-Ala-Phe-Asn-PyrS2-2C1F-BztA-dThr-NH2], the Solubility in the data set “Solubility in PBS” (Solubility (uM)) came out at 44 µM (≈ 88.2 µg/mL). Further, the IC50 in data set [1] (read-out: beta-Catenin FP IC50) came out at 546 nM.
`CC(=O)N1CCC[C@]12CC=CCCCC1(CCCC=CCCCCCCCC[C@@](C)(C(=O)N[C@@H](Cc3ccccc3Cl)C(=O)N[C@@H](Cc3csc4ccccc34)C(=O)N[C@H](C(N)=O)[C@@H](C)O)NC(=O)[C@H]([C@@H](C)O)NC(=O)[C@H](Cc3ccccc3)NC(=O)[C@H](C)NC(=O)[C@H](C)NC(=O)[C@H](CC(=O)O)NC(=O)[C@H](CC(=O)O)NC1=O)NC(=O)[C@H](CC(C)(C)C)NC(=O)[C@H](CC(=O)O)NC2=O` (stereo partly drawn) [I-1262, Ac-PL3-Asp-Npg-B5-Asp-Asp-Ala-Ala-Phe-Thr-S10-2C1F-BztA-Thr-NH2] registered a Solubility in “Solubility in PBS” (Solubility (uM)) of 49 µM (≈ 92.7 µg/mL). Moreover, the IC50 in data set [1] (read-out: beta-Catenin FP IC50) was 1120 nM.
On to `CC(=O)N1CCC[C@]12CC=CCCCC1(CCCC=CCCCOC(=O)N3CC[C@@](C(=O)N[C@@H](Cc4ccc5ccccc5c4)C(=O)N[C@@H](Cc4csc5ccccc45)C(=O)N[C@@H](CO)C(N)=O)(C3)NC(=O)[C@H]([C@@H](C)O)NC(=O)[C@H](Cc3ccccc3)NC(=O)[C@H](C)NC(=O)[C@H](C)NC(=O)[C@H]([C@@H](C)O)NC(=O)[C@H](CC(=O)O)NC1=O)NC(=O)[C@H](CC(C)(C)C)NC(=O)[C@H](CC(=O)O)NC2=O` (stereo partly drawn) [I-1270, Ac-PL3-Asp-Npg-B5-Asp-Thr-Ala-Ala-Phe-Thr-PyrS2-2NapA-BztA-Ser-NH2], for which, in the data set “Solubility in PBS”, the “Solubility” value was 10 µM (≈ 18.9 µg/mL). Further, in data set [1] (read-out: beta-Catenin FP IC50), the IC50 was 3700 nM.
In the same order, the values of `CC(=O)N1CCC[C@]12CC=CCCCC1(CCCC=CCCCOC(=O)N3CC[C@@](C(=O)N[C@@H](Cc4cccc(C(F)(F)F)c4)C(=O)N[C@@H](Cc4csc5ccccc45)C(=O)N[C@@H](CO)C(N)=O)(C3)NC(=O)[C@H]([C@@H](C)O)NC(=O)[C@H](Cc3ccccc3)NC(=O)[C@H](C)NC(=O)[C@H](C)NC(=O)[C@H]([C@@H](C)O)NC(=O)[C@H](CC(=O)O)NC1=O)NC(=O)[C@H](CC(C)(C)C)NC(=O)[C@H](CC(=O)O)NC2=O` (stereo partly drawn) [I-1271, Ac-PL3-Asp-Npg-B5-Asp-Thr-Ala-Ala-Phe-Thr-PyrS2-3F3MeF-BztA-Ser-NH2] are 10 µM (≈ 19.1 µg/mL) and 682 nM.
Compound `CC(=O)N1CCC[C@]12CC=CCCCC1(CCCC=CCCCOC(=O)N3CC[C@@](C(=O)N[C@@H](Cc4ccccc4)C(=O)N[C@@H](Cc4cccc5ccccc45)C(=O)N[C@@H](CO)C(N)=O)(C3)NC(=O)[C@H]([C@@H](C)O)NC(=O)[C@H](Cc3ccccc3)NC(=O)[C@H](C)NC(=O)[C@H](C)NC(=O)[C@H]([C@@H](C)O)NC(=O)[C@H](CC(=O)O)NC1=O)NC(=O)[C@H](CC(C)(C)C)NC(=O)[C@H](CC(=O)O)NC2=O` (stereo partly drawn) [I-1272, Ac-PL3-Asp-Npg-B5-Asp-Thr-Ala-Ala-Phe-Thr-PyrS2-Phe-1NapA-Ser-NH2] gave a Solubility in the data set “Solubility in PBS” (Solubility (uM)) of 21 µM (≈ 38.6 µg/mL). For the same compound, the IC50 in data set [1] (read-out: beta-Catenin FP IC50) turned out to be 331 nM.
Regarding `CC(=O)N1CCC[C@]12CC=CCCCC1(CCCC=CCCCOC(=O)N3CC[C@@](C(=O)N[C@@H](Cc4ccccc4)C(=O)N[C@@H](Cc4csc5ccccc45)C(=O)N[C@@H](CCC(N)=O)C(N)=O)(C3)NC(=O)[C@H](CC(C)C)NC(=O)[C@H](Cc3ccccc3)NC(=O)[C@H](C)NC(=O)[C@H](CCCCNC(C)C)NC(=O)[C@H]([C@@H](C)O)NC(=O)[C@H](CC(=O)O)NC1=O)NC(=O)[C@H](CC(C)(C)C)NC(=O)[C@H](CC(N)=O)NC2=O` (stereo partly drawn) [I-1288, Ac-PL3-Asn-Npg-B5-Asp-Thr-iPrLys-Ala-Phe-Leu-PyrS2-Phe-BztA-Gln-NH2], the “Solubility” value in “Solubility in PBS” amounted to 10 µM (≈ 20 µg/mL). Moreover, the IC50 is 1160 nM in data set [1] (beta-catenin, read-out: FP EC50) and 1160 nM in data set [1] (read-out: beta-Catenin FP IC50).
